The source of these data is patent US20240336627A1, “NOVEL COMPOUNDS FOR THE DIAGNOSIS OF TDP-43 PROTEINOPATHIES” (AC IMMUNE SA, priority 2021, published 2024).

Structures are written as SMILES. Entries after “also recorded” stand apart in the source; their conditions may differ. Like-named read-outs stand apart in the source and are kept apart here.

For assay [1], the target named is T1, recombinant flag-tagged TDP-43 aggregates (Homo sapiens, UniProt Q13148).
T1 construct: FLAG
Kind of assay: Kd determination on recombinant TDP-43 aggregates with filter-binding assay. As for the experimental part:
The TDP-43 aggregation protocol (Shimonaka et al., 2016) was implemented to generate TDP-43 aggregates. The protein preparation of high purity without any degradation was used for the aggregation procedure.
2.1 Kd Determination on Recombinant TDP-43 Aggregates with Filter-Binding Assay of [^3H]-Compound 1
Recombinant flag-tagged TDP-43 aggregates (1.3 μM) were incubated in the presence of [^3H]-Compound 1 with increasing concentrations of radioligand from 0 to 150 nM in a total reaction volume of 100 μL, for two hours at room temperature. 45 μL of sample (corresponding to each concentration) in duplicate was filtered under vacuum on a UniFilter-96 GF/C plate. The filters were washed 5 times with ice-cold buffer (50 mM Tris pH 7.4) and then dried overnight. 30 μL scintillation liquid was added in each well for 30 minutes before quantifying the signal on a Microbeta Trilux device (Perkin Elmer). The non-specific signal was determined with an excess of unlabeled Compound 1 (10 μM) and the specific binding was calculated by subtracting the non-specific signal from the total signal.

Assay [2] concerns the target T2, pTDP-43 aggregates in FTLD-TDP brain sections (Homo sapiens, UniProt Q13148).
T2 construct: from tissue; host or cells: frozen post-mortem human brain sections from FTLD-TDP donors
Kind of assay: Micro-autoradiography staining in brain sections from patients with FTD. Format: binding. Particulars: 60 nM radioligand, frontal cortex brain sections from FTLD-TDP donors. As for the experimental part:
All tissues were collected from donors for or from whom a written informed consent for a brain autopsy and the use of the material and clinical information for research purposes had been obtained by the respective brain banks. All samples were anonymized and coded. Frozen brain tissue blocks with confirmed TDP-43 pathology upon autopsy were processed using a cryotome to generate sections of 10 μm in thickness and mounted on glass slides. Sections were kept at −80° C. until use.
Brain sections were immunostained using a commercially available antibody, specific for phosphorylated serine at amino acid 409/410 (anti-pTDP-43 pS409/410, Cosmobio, TIP-PTD-P02). Sections were fixed for 15 minutes at 4° C. with 4% formaldehyde (Sigma, 252549) and washed three times for five minutes with 1×PBS (Dulbecco's phosphate buffered saline, Sigma D1408) at room temperature. Next, sections were saturated and permeabilized in blocking buffer (PBS, 10% normal goat serum (NGS), 0.25% Triton X-100) for one hour at room temperature and incubated overnight at 4° C. with primary antibody against pTDP-43 (diluted at 1/250 in PBS, 5% NGS, 0.25% Triton X-100). The following day, sections were washed three times for five minutes with 1×PBS before incubation with a secondary, AlexaFluor647-labeled goat-anti-rabbit antibody (Abcam, ab150079, diluted at 1/500 in PBS) for 45 minutes at room temperature. […]

T1 sequence (Q13148 whole entry): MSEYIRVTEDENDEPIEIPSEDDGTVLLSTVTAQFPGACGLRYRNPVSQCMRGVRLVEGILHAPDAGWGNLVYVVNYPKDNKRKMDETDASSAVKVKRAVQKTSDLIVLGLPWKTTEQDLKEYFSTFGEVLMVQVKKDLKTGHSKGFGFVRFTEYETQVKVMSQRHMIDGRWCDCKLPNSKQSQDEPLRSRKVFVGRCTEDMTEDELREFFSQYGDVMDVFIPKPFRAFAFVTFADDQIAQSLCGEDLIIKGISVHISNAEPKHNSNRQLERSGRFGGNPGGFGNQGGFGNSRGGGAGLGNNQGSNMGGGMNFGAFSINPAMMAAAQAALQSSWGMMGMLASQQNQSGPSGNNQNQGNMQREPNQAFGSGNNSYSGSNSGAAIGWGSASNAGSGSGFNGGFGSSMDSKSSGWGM
T2 sequence (Q13148 whole entry): as above

As to `Cn1cc(N2CCc3nc(-c4ccc(N5CC[C@@H](F)C5)nc4)sc3C2=O)cn1` [[^3H]-Compound 1, (R)-2-(6-(3-fluoropyrrolidin-1-yl)pyridin-3-yl)-5-(1-methyl-1H-pyrazol-4-yl)-6,7-dihydrothiazolo[5,4-c]pyridin-4(5H)-one], the Kd in assay [1] (data from three independent experiments, read-out: average Kd) turned out to be 18.4 ± 4 nM; in assay [1] (filter-binding assay, tritiated radioligand 0 to 150 nM, one-site specific binding model (FIG. 1), read-out: Kd value on recombinant flag-tagged TDP-43 aggregates), 15 nM. In addition, the “specific binding to recombinant TDP-43 aggregates” value in assay [1] (filter-binding assay, non-specific signal subtracted) is on record as “high specific binding”. Moreover, the “micro-autoradiography signal (silver grains) co-localization with pTDP-43 antibody staining” value in assay [2] is “Accumulation of silver grains on pTDP-43 aggregates; also recorded: showed co-localization with pTDP-43 aggregates”.

The term Kd denotes the equilibrium constant for the complex coming apart.
